Each structure is given as a SMILES string. Bounds are passed on as bounds.

Series [1] relates to SMN2 minigene (full length SMN2 minigene mRNA containing SMN2 exon 7). The experiment in a line: SMN2 minigene mRNA splicing RT-qPCR assay in cultured cells. It counts as cell-based, human. As to conditions: Homo sapiens, HEK293-H; HEK293H cells stably transfected with SMN2-A minigene; 24 hours; 7-point concentration curve; 1.5-fold relative to vehicle-treated cells; read-out: EC1.5x for production of full length SMN2 mRNA. The essentials: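 HEK293H cells stably carrying the SMN2-A minigene treated 24 h at 37° C with compound (DMSO, 200× stock), then lysed. Multiplex RT-qPCR (SMN primers 0.4 μM final; 40 cycles) measures full-length exon 7-containing minigene mRNA, normalized to GAPDH and to vehicle; EC1.5x derived and binned by stars.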
(In qPCR the cycle at which signal appears reflects the starting amount.)

The subject of another series is Smn protein. Nature of the series: Smn protein assay in cultured cells (SMN HTRF). Format: cell-based, human. The settings on record: 48 hours; for EC1.5x (concentration giving 1.5-fold Smn protein increase): SMA Type 1 patient fibroblast cells (GM03813), 7-point concentration curve, SMN HTRF, concentration producing 1.5 times Smn protein vs DMSO vehicle control, read-out: EC1.5x for Smn protein expression; for maximum fold (Fold) increase of Smn protein: SMA patient fibroblast cells, 7-point concentration data, fold increase relative to vehicle control (SMN HTRF). The essentials: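 Lysates in RIPA with protease inhibitors are incubated overnight at room temperature with HTRF anti-SMN antibodies. EC1.5x is derived from fold increase in ΔF over vehicle.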
A general note: Time-resolved FRET reads energy transfer from a long-lived donor to a nearby acceptor.

As for `Cc1nccn2cc(-c3cc4ccc(N5CCCNCC5)cc4oc3=O)nc12` [Compound 572, 7-(1,4-diazepan-1-yl)-3-(8-methylimidazo[1,2-a]pyrazin-2-yl)-2H-chromen-2-one], the melting point (commonly the temperature, or range, at which the solid turns liquid) fell in the range of 212 to 216 °C. In addition, in series [1], the EC (1.5-fold) lay within 0.1 to 0.3 µM. Also, in the series on Smn protein, the EC1.5x (concentration giving 1.5-fold Smn protein increase) lay in the range of 300 to 1000 nM; the “maximum fold (Fold) increase of Smn protein” value (shortened to “maximum fold (Fold) increase”) was “**** (fold increase between >1.5 and ≤1.65)”.
`Cc1ccc2oc(-c3cc4ccc(N5C[C@@H](C)N[C@@H](C)C5)cc4oc3=O)cc2n1` [Compound 720, 7-[(3R,5S)-3,5-dimethylpiperazin-1-yl]-3-(5-methylfuro[3,2-b]pyridin-2-yl)-2H-chromen-2-one] registered a melting point of 179 to 183 °C. The EC (1.5-fold) in series [1] was 0.3 to 1 µM. For the same compound, the “maximum fold (Fold) increase” value with Smn protein was “** (fold increase between >1.2 and ≤1.35)”.
`C[C@H]1CN(c2ccc3cc(-c4ccc5c(c4)OCCO5)c(=O)oc3c2)CCN1` [Compound 513, 3-(2,3-dihydro-1,4-benzodioxin-6-yl)-7-[(3S)-3-methylpiperazin-1-yl]-2H-chromen-2-one] returned a melting point of 196 to 198 °C. In addition, in series [1], the EC (1.5-fold) lay within 1 to 3 µM. In addition, the “maximum fold (Fold) increase” value in the series on Smn protein was “* (maximum fold increase of ≤1.2)”.
Consider `Cc1cc2cc(-c3cc4ccc(N5CCN[C@H](C)C5)cc4oc3=O)oc2c(C)n1` [Compound 806, 3-(5,7-dimethylfuro[2,3-c]pyridin-2-yl)-7-[(3R)-3-methylpiperazin-1-yl]-2H-chromen-2-one], for which the melting point was 251 to 256 °C. Moreover, the EC (1.5-fold) in series [1] is under 0.1 µM. Moreover, in the series on Smn protein, the EC1.5x (concentration giving 1.5-fold Smn protein increase) was under 300 nM and the “maximum fold (Fold) increase” value is recorded as “***** (fold increase >1.65)”.
In turn, `Cc1cn2cc(-c3cc4ccc(N5CCN(C(C)C)CC5)cc4oc3=O)cc2cn1` [Compound 692, 3-(3-methylpyrrolo[1,2-a]pyrazin-7-yl)-7-[4-(propan-2-yl)piperazin-1-yl]-2H-chromen-2-one] had a melting point of 221 to 225 °C. Moreover, the EC (1.5-fold) in series [1] was under 0.1 µM. In addition, in the series with Smn protein, the EC1.5x (concentration giving 1.5-fold Smn protein increase) is under 300 nM; the “maximum fold (Fold) increase” value was “**** (fold increase between >1.5 and ≤1.65)”.
In turn, `O=c1oc2cc(N3CCNCC3)cc(F)c2cc1-c1nc2ccccc2o1` [Compound 159, 3-(1,3-benzoxazol-2-yl)-5-fluoro-7-(piperazin-1-yl)-2H-chromen-2-one] returned a melting point of 245 to 250 °C. Moreover, the EC (1.5-fold) in series [1] was 0.3 to 1 µM. Also, in the series with Smn protein, the “maximum fold (Fold) increase” value was “*** (fold increase between >1.35 and ≤1.5)”.
`Cc1cn2cc(-c3cc4ccc(CCNC(C)C)cc4oc3=O)nc2c(C)n1` [Compound 865, 3-(6,8-dimethylimidazo[1,2-a]pyrazin-2-yl)-7-[2-(propan-2-ylamino)ethyl]-2H-chromen-2-one] yielded a melting point of 192 to 197 °C. Also, in series [1], the EC (1.5-fold) was under 0.1 µM. Also, in the series on Smn protein, the EC1.5x (concentration giving 1.5-fold Smn protein increase) lay within 1000 to 3000 nM; the “maximum fold (Fold) increase” value was “**** (fold increase between >1.5 and ≤1.65)”.
On to `Cc1cn2cc(-c3cc4ccc(CCCNCc5ccccc5)cc4oc3=O)nc2c(C)n1` [Cpd 933, 7-[3-(benzylamino)propyl]-3-(6,8-dimethylimidazo[1,2-a]pyrazin-2-yl)-2H-chromen-2-one], for which the melting point lay in the range of 143 to 147 °C. Also, the EC (1.5-fold) in series [1] is under 0.1 µM. Further, the “maximum fold (Fold) increase” value in the series with Smn protein was “* (maximum fold increase of ≤1.2)”.
For `C[C@H]1CN(c2ccc3cc(-c4cn5cc(Cl)cnc5n4)c(=O)oc3c2)CCN1` [Compound 376, 3-(6-chloroimidazo[1,2-a]pyrimidin-2-yl)-7-[(3S)-3-methylpiperazin-1-yl]-2H-chromen-2-one] the same measures were 260 to 262 °C, 1 to 3 µM and “* (maximum fold increase of ≤1.2)”.
`Cc1cn2cc(-c3cc4ccc(CCCN(C)C)cc4oc3=O)nc2c(C)n1` [Compound 857, 7-[3-(dimethylamino)propyl]-3-(6,8-dimethylimidazo[1,2-a]pyrazin-2-yl)-2H-chromen-2-one] had a melting point of 194 to 196 °C. Further, the EC (1.5-fold) in series [1] was under 0.1 µM. Also, in the series with Smn protein, the EC1.5x (concentration giving 1.5-fold Smn protein increase) was under 300 nM and the “maximum fold (Fold) increase” value is given as “***** (fold increase >1.65)”.
Take `CCCN1CCN(c2ccc3cc(-c4cn5cccnc5n4)c(=O)oc3c2)CC1` [Compound 109, 3-(imidazo[1,2-a]pyrimidin-2-yl)-7-(4-propylpiperazin-1-yl)-2H-chromen-2-one]: the melting point was 291 to 293 °C. The EC (1.5-fold) in series [1] was in the range of 1 to 3 µM. In the series on Smn protein, the EC1.5x (concentration giving 1.5-fold Smn protein increase) was in the range of 3000 to 10000 nM; the “maximum fold (Fold) increase” value was “*** (fold increase between >1.35 and ≤1.5)”.
In the case of `Cc1cn2cc(-c3cc4c(F)cc(N5CCCNCC5)cc4oc3=O)nc2c(C)n1` [Compound 608, 7-(1,4-diazepan-1-yl)-3-(6,8-dimethylimidazo[1,2-a]pyrazin-2-yl)-5-fluoro-2H-chromen-2-one], the melting point fell in the range of 248 to 250 °C. In series [1], the EC (1.5-fold) was under 0.1 µM. Further, in the series with Smn protein, the EC1.5x (concentration giving 1.5-fold Smn protein increase) was under 300 nM and the “maximum fold (Fold) increase” value was “***** (fold increase >1.65)”.
In turn, `C[C@H]1CN(c2ccc3cc(-c4cc5ccccc5s4)c(=O)oc3c2)CCN1` [Compound 410, 3-(1-benzothiophen-2-yl)-7-[(3S)-3-methylpiperazin-1-yl]-2H-chromen-2-one] gave a melting point of 260 to 262 °C. In addition, the EC (1.5-fold) in series [1] was under 0.1 µM. For the same compound, the “maximum fold (Fold) increase” value in the series on Smn protein is “* (maximum fold increase of ≤1.2)”.
For `CCc1cccn2cc(-c3cc4ccc(N5CCN(C)CC5)cc4oc3=O)nc12` [Compound 358, 3-(8-ethylimidazo[1,2-a]pyridin-2-yl)-7-(4-methylpiperazin-1-yl)-2H-chromen-2-one], the melting point is 137 to 141 °C. For the same compound, the EC (1.5-fold) in series [1] fell in the range of 1 to 3 µM. Besides, the “maximum fold (Fold) increase” value in the series on Smn protein is “*** (fold increase between >1.35 and ≤1.5)”.
`Cc1cc2cc(-c3cc4ccc(N5CCNCC5)cc4oc3=O)oc2c(C)n1` [Cpd 723, 3-(5,7-dimethylfuro[2,3-c]pyridin-2-yl)-7-(piperazin-1-yl)-2H-chromen-2-one] yielded a melting point of 218 to 220 °C. Also, the EC (1.5-fold) in series [1] is under 0.1 µM. In the series on Smn protein, the EC1.5x (concentration giving 1.5-fold Smn protein increase) was under 300 nM and the “maximum fold (Fold) increase” value is recorded as “***** (fold increase >1.65)”.
For `COc1ccc(-c2cc3ccc(N4CCN[C@@H](C)C4)cc3oc2=O)cc1` [Compound 449, 3-(4-methoxyphenyl)-7-[(3S)-3-methylpiperazin-1-yl]-2H-chromen-2-one], the melting point fell in the range of 123 to 126 °C. Besides, the EC (1.5-fold) in series [1] was in the range of 1 to 3 µM. In addition, the “maximum fold (Fold) increase” value in the series with Smn protein is given as “* (maximum fold increase of ≤1.2)”.
Take `Cc1cc(Cl)c2nc(-c3cc4ccc(N5CCCN(C)CC5)cc4oc3=O)cn2c1` [Compound 344, 3-(8-chloro-6-methylimidazo[1,2-a]pyridin-2-yl)-7-(4-methyl-1,4-diazepan-1-yl)-2H-chromen-2-one]: the melting point was in the range of 224 to 230 °C. The EC (1.5-fold) in series [1] fell in the range of 0.3 to 1 µM. Besides, the “maximum fold (Fold) increase” value in the series on Smn protein is “** (fold increase between >1.2 and ≤1.35)”.
`Cc1cn2cc(-c3cc4ccc(N5C[C@@H](C)N[C@@H](C)C5)cc4oc3=O)nc2cn1` [Compound 476, 7-[(3R,5S)-3,5-dimethylpiperazin-1-yl]-3-(6-methylimidazo[1,2-a]pyrazin-2-yl)-2H-chromen-2-one] returned a melting point of 249 to 250 °C. For the same compound, the EC (1.5-fold) in series [1] is under 0.1 µM. In the series on Smn protein, the EC1.5x (concentration giving 1.5-fold Smn protein increase) was under 300 nM and the “maximum fold (Fold) increase” value is listed as “***** (fold increase >1.65)”.
On to `C[C@@H]1CN(c2ccc3cc(-c4cn5cc(Cl)sc5n4)c(=O)oc3c2)C[C@H](C)N1` [Compound 473, 3-(2-chloroimidazo[2,1-b][1,3]thiazol-6-yl)-7-[(3R,5S)-3,5-dimethylpiperazin-1-yl]-2H-chromen-2-one], for which the melting point is 270 to 273 °C. The EC (1.5-fold) in series [1] was 0.1 to 0.3 µM. Further, the “maximum fold (Fold) increase” value in the series with Smn protein was “** (fold increase between >1.2 and ≤1.35)”.
In the case of `CCN1CCN(c2ccc3cc(-c4cn5cc(Cl)nc(C)c5n4)c(=O)oc3c2)CC1` [Compound 766, 3-(6-chloro-8-methylimidazo[1,2-a]pyrazin-2-yl)-7-(4-ethylpiperazin-1-yl)-2H-chromen-2-one], the melting point lay in the range of 228 to 230 °C. Further, in series [1], the EC (1.5-fold) was under 0.1 µM. Further, in the series on Smn protein, the “maximum fold (Fold) increase” value is “*** (fold increase between >1.35 and ≤1.5)”.
Turning to `Cc1cc(Cl)cn2cc(-c3cc4ccc(N5CCNCC5)cc4oc3=O)nc12` [Compound 263, 3-(6-chloro-8-methylimidazo[1,2-a]pyridin-2-yl)-7-(piperazin-1-yl)-2H-chromen-2-one], the melting point lay within 224 to 233 °C. Besides, the EC (1.5-fold) in series [1] was 3 to 30 µM. Besides, the “maximum fold (Fold) increase” value in the series with Smn protein is listed as “* (maximum fold increase of ≤1.2)”.
For `CC1(C)CN(c2ccc3cc(-c4cn5cccc(Cl)c5n4)c(=O)oc3c2)CCN1` [Compound 249, 3-(8-chloroimidazo[1,2-a]pyridin-2-yl)-7-(3,3-dimethylpiperazin-1-yl)-2H-chromen-2-one], the melting point was in the range of 216 to 220 °C. In addition, in series [1], the EC (1.5-fold) lay within 0.3 to 1 µM. The “maximum fold (Fold) increase” value in the series on Smn protein was “** (fold increase between >1.2 and ≤1.35)”.

The record behind these values is patent publication USRE47689E1, “Compounds for treating spinal muscular atrophy” (PTC Therapeutics, Inc., priority 2011, dated 2019).
